The source of these data is the supplement of paper PMC4862054.

Holding throughout (settings): incubation time: 72 h
Assay [1] concerns MDA-MB-453. The experiment in a line: drug sensitivity score (DSS), CellTox Green (DSS (AUC-based score)); higher = stronger drug effect (viability inhibition or cytotoxicity); extreme values may be limits of the assay. In a few lines: (§1)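 Breast cancer cell lines were seeded in 20 µl suspension into 384-well plates already holding compound and incubated for 72 h. Each compound was tested at 5 concentrations in 10-fold steps across its own 10,000-fold range. Plates were normalised to 0.1 % DMSO and a positive kill control after CellTox Green and then CellTiter-Glo readings. The area under the fitted dose-response curve served as the basis for the drug sensitivity score.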

The subject of assay [2] is HCC1937. Described as above. A digest of the protocol: as §1
Assay [3] relates to CAL-148. Described as above. In a few lines:
as §1

For assay [4], the system named is MDA-MB-468. Described as above. A digest of the protocol:
as §1

In assay [5] the test system is MDA-MB-231. The description is as above. In a few lines: as §1
The subject of assay [6] is CAL-51. The description is as above. In a few lines: as §1
Assay [7] concerns BT-474. The description is as above. A digest of the protocol:
as §1

The test system of assay [8] is MDA-MB-436. The description is as above. In a few lines:
as §1

The test system of assay [9] is Hs578T. Described as above. In a few lines: as §1
In assay [10] the test system is DU-4475. Described as above. In a few lines: as §1
The subject of the next assay is CAL-120. The assay is described as follows: normalised response (% of control), CellTox Green; higher = less cell death (100 = DMSO, 0 = benzethonium chloride kill control). In a few lines: (§2)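 After 72 h with compound in 384-well plates, breast cancer cell lines seeded as 20 µl suspension were read for CellTox Green fluorescence at 485/520 nm. CellTiter-Glo luminescence was then read after 10 min at room temperature. Compound was present at 5 concentrations in 10-fold steps over a 10,000-fold range set per compound, and plates were normalised to 0.1 % DMSO (100) and a positive kill control (0). Values are normalised signals, each at a single concentration.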

The subject of assay [11] is MDA-MB-453. The assay is described as above. A digest of the protocol:
as §2

In assay [12] the test system is HCC1937. The assay is described as above. In a few lines: as §2
The next assay concerns HCC1599. Described as above. In a few lines: as §2
The subject of assay [13] is CAL-148. Described as above. In a few lines:
as §2

The subject of assay [14] is MDA-MB-468. The assay is described as above. In a few lines: as §2
Another assay deals with CAL-85-1. Described as above. In a few lines: as §2
In assay [15] the test system is MDA-MB-231. Described as above. A digest of the protocol: as §2
The next assay concerns MCF-10A. Described as above. A digest of the protocol: as §2
Another assay deals with MFM-223. The assay is described as above. A digest of the protocol: as §2
Assay [16] has as its system CAL-51. Described as above. In a few lines:
as §2

In assay [17] the test system is BT-474. The description is as above. In a few lines:
as §2

Another assay deals with BT-549. Described as above. In a few lines: as §2
Assay [18] has as its system MDA-MB-436. Described as above. In a few lines: as §2
For the next assay, the system named is HCC1143. The assay is described as above. In a few lines: as §2
The next assay concerns HDQ-P1. Described as above. A digest of the protocol:
as §2

The subject of assay [19] is Hs578T. The assay is described as above. In a few lines:
as §2

Assay [20] deals with DU-4475. The assay is described as above. A digest of the protocol: as §2

With `COC1=C2C[C@@H](C)C[C@H](OC)[C@H](O)[C@@H](C)/C=C(\C)[C@H](OC(N)=O)[C@@H](OC)/C=C\C=C(/C)C(=O)NC(=CC1=O)C2=O` [Geldanamycin], the drug sensitivity score stood at 0 in the assay with MDA-MB-453 [1]; 6.9 in the assay on HCC1937 [2]; 0 in the assay with CAL-148 [3]; 25 in the assay on MDA-MB-468 [4]; 4.3 with MDA-MB-231 [5]; 1.35 in the assay on CAL-51 [6]. Besides, the drug sensitivity score in the assay with BT-474 [7] was found to be 2.54; with MDA-MB-436 [8], 0; in the assay on Hs578T [9], 0; in the assay on DU-4475 [10], 0.88.

As for `CS(=O)(=O)CCNCc1ccc(-c2ccc3ncnc(Nc4ccc(OCc5cccc(F)c5)c(Cl)c4)c3c2)o1` [Lapatinib], the drug sensitivity score in the assay on MDA-MB-453 [1] is 1.15; in the assay with HCC1937 [2], 2.25; in the assay with CAL-148 [3], 2.94; in the assay on MDA-MB-468 [4], 0; in the assay with MDA-MB-231 [5], 1.62; in the assay on CAL-51 [6], 0. The drug sensitivity score in the assay with BT-474 [7], with MDA-MB-436 [8], in the assay on Hs578T [9] and in the assay with DU-4475 [10] was 0 each time.

As to `Cn1cnc2c(F)c(Nc3ccc(Br)cc3F)c(C(=O)NOCCO)cc21` [MEK-162], the drug sensitivity score in the assay on MDA-MB-453 [1] worked out at 0; in the assay with CAL-148 [3], 1.61; in the assay on MDA-MB-468 [4], 0; with CAL-51 [6], 0; with BT-474 [7], 0; with MDA-MB-436 [8], 0. Moreover, the drug sensitivity score was found to be 0 in the assay with Hs578T [9] and 1.92 with DU-4475 [10].

With `CCOc1cc2ncc(C#N)c(Nc3ccc(OCc4ccccn4)c(Cl)c3)c2cc1NC(=O)/C=C/CN(C)C` [Neratinib], the drug sensitivity score turned out to be 0 with MDA-MB-453 [1]; 0 in the assay with HCC1937 [2]; 0.237 in the assay with CAL-148 [3]; 9.51 with MDA-MB-468 [4]; 4.21 in the assay on MDA-MB-231 [5]; 0 in the assay on CAL-51 [6]. The drug sensitivity score in the assay on BT-474 [7] was determined as 4.09; in the assay on MDA-MB-436 [8], 0; with Hs578T [9] it was 0; with DU-4475 [10], 0.

Consider `COc1ccc(C2=N[C@@H](c3ccc(Cl)cc3)[C@@H](c3ccc(Cl)cc3)N2C(=O)N2CCNC(=O)C2)c(OC(C)C)c1` [Nutlin-3], for which the drug sensitivity score in the assay with MDA-MB-453 [1] worked out at 0; in the assay on HCC1937 [2] it was 2.28; in the assay on CAL-148 [3] it was 1.15; with MDA-MB-468 [4], 0; in the assay with MDA-MB-231 [5], 0; in the assay on CAL-51 [6] it was 13.1. Also, the drug sensitivity score in the assay on BT-474 [7], in the assay with MDA-MB-436 [8], with Hs578T [9] and in the assay on DU-4475 [10] was 0 throughout.

`COC1=CC(c2cc3ccccc3[nH]2)=N/C1=C\c1[nH]c(C)cc1C` [Obatoclax]: the drug sensitivity score with MDA-MB-453 [1] amounted to 0; in the assay with HCC1937 [2], 0; in the assay with CAL-148 [3], 0; in the assay with MDA-MB-468 [4], 0; in the assay with MDA-MB-231 [5] it was 12.7; in the assay on CAL-51 [6] it was 6.54. Besides, the drug sensitivity score in the assay on BT-474 [7], with MDA-MB-436 [8], in the assay with Hs578T [9] and with DU-4475 [10] was 0 each time.

For `COC(=O)C[C@](O)(CCCC(C)(C)O)C(=O)O[C@@H]1C(OC)=C[C@]23CCCN2CCc2cc4c(cc2[C@H]13)OCO4` [Omacetaxine], the drug sensitivity score in the assay on MDA-MB-453 [1] was found to be 0; in the assay with HCC1937 [2] it was 0; with CAL-148 [3], 6.49; in the assay on MDA-MB-468 [4], 3.61; with MDA-MB-231 [5] it was 7.01; in the assay with CAL-51 [6], 0. Moreover, the drug sensitivity score in the assay on BT-474 [7] was found to be 0.916; in the assay with MDA-MB-436 [8] it was 1.54; in the assay on Hs578T [9], 17.1; in the assay with DU-4475 [10], 0.

As for `CC(C)(C)c1cc(NC(=O)Nc2ccc(-c3cn4c(n3)sc3cc(OCCN5CCOCC5)ccc34)cc2)no1` [Quizartinib], the drug sensitivity score in the assay on MDA-MB-453 [1], with HCC1937 [2], in the assay on CAL-148 [3], in the assay with MDA-MB-468 [4], with MDA-MB-231 [5] and in the assay on CAL-51 [6] was 0 throughout. In addition, the drug sensitivity score in the assay with BT-474 [7] turned out to be 0; in the assay on Hs578T [9], 3.83; in the assay with DU-4475 [10], 0.

With `Cn1c(=O)c(F)c(Nc2ccc(I)cc2F)c2c(=O)n(C[C@@H](O)CO)cnc21` [TAK-733], the drug sensitivity score came out at 0 in the assay with MDA-MB-453 [1]; 0 in the assay with HCC1937 [2]; 0 in the assay with CAL-148 [3]; 0 in the assay with MDA-MB-468 [4]; 5.12 in the assay on MDA-MB-231 [5]; 0 in the assay on CAL-51 [6]. The drug sensitivity score with BT-474 [7] is 0; in the assay on MDA-MB-436 [8], 0; in the assay on DU-4475 [10], 4.73.

Turning to `CCS(=O)(=O)c1cccc(-c2cc(C(=O)NC3CCN(C)CC3)c(C)c3[nH]c4ncc(C)cc4c23)c1` [TAK-901], the drug sensitivity score with MDA-MB-453 [1] stood at 0; in the assay on HCC1937 [2], 0; in the assay on CAL-148 [3], 0; in the assay on MDA-MB-468 [4], 0; with MDA-MB-231 [5] it was 3.45; in the assay with BT-474 [7], 0. Besides, the drug sensitivity score in the assay with MDA-MB-436 [8], with Hs578T [9] and in the assay on DU-4475 [10] was 0 in each case.

Turning to `CCS(=O)(=O)c1cccc(-c2cc(C(=O)NC3CCN(C)CC3)c(C)c3[nH]c4ncc(C)cc4c23)c1` [TAK-901] (1000 nM), the normalised response was found to be 84.2% in the assay with CAL-120; 105% with MDA-MB-453 [11]; 95.2% in the assay with HCC1937 [12]; 97.1% in the assay with HCC1599; 84.6% with CAL-148 [13]; 74.3% with MDA-MB-468 [14]. Further, the normalised response in the assay with CAL-85-1 was found to be 58.9%; with MDA-MB-231 [15] it was 57.7%; in the assay on MCF-10A it was 90%; in the assay with MFM-223, 85%; with CAL-51 [16] it was 36.5%; in the assay with BT-474 [17], 91.5%. For the same compound, the normalised response is 41% in the assay on BT-549; 69.2% with MDA-MB-436 [18]; 87.8% in the assay on HCC1143; 55% in the assay on HDQ-P1; 106% in the assay with Hs578T [19]; 97% in the assay with DU-4475 [20].

Turning to `Cc1cc(C(C)Nc2ccccc2)c2nc(N3CCOCC3)cc(=O)n2c1` (stereo unspecified) [TGX-221], the drug sensitivity score with MDA-MB-453 [1] amounted to 0; with HCC1937 [2], 0; in the assay with CAL-148 [3], 0; in the assay with MDA-MB-468 [4], 0; in the assay on MDA-MB-231 [5] it was 0.585; with CAL-51 [6], 0. For the same compound, the drug sensitivity score in the assay with BT-474 [7], in the assay with MDA-MB-436 [8] and in the assay with DU-4475 [10] was 0 each time.

For `COc1cc(Nc2ncc(F)c(Nc3ccc4c(n3)NC(=O)C(C)(C)O4)n2)cc(OC)c1OC` [Tamatinib], the drug sensitivity score with MDA-MB-453 [1] was determined as 0; in the assay on HCC1937 [2], 0; in the assay on CAL-148 [3], 0; with MDA-MB-231 [5] it was 0; with CAL-51 [6], 1.13; in the assay with BT-474 [7], 0. Moreover, the drug sensitivity score in the assay with MDA-MB-436 [8], in the assay on Hs578T [9] and with DU-4475 [10] was 0 in each case.
